The text below walks through data of ChEMBL document CHEMBL4421726, “Novel prodrug salts” (2016).

Active and inactive are the calls of the source. The rule behind the calls is not given here.

Data set [1] in a line: Stability of the compound assessed as compound hydrolysis at room temperature after 5 days. The data set is classed as physicochemical. Particulars: read-out: Drug degradation.
Data set [2] can be described thus: Stability of the compound in solid state assessed as compound hydrolysis. Format: physicochemical.
The nature of data set [3]: Stability of the compound in pH 8.5 buffer assessed as compound hydrolysis measured over 12 hrs. Particulars: read-out: Drug degradation. Format: physicochemical.
Data set [4] can be described thus: Stability of the compound in pH 8.5 buffer assessed as compound hydrolysis at room temperature. The data set is classed as physicochemical. The settings on record: read-out: Drug degradation.
In data set [5] the test system is Mus musculus. Kind of data set: Improvement in neurological outcome in intraluminal monofilament mouse model of middle cerebral artery occlusion at 2 mg/kg, ip loading dose and 1 mg/ml at 8 ul/hr maintenance dose. The data set is classed as functional, organism-based.
The subject of data set [6] is Mus musculus. Kind of data set: Improvement in neurological outcome in intraluminal monofilament mouse model of middle cerebral artery occlusion assessed as reduction in severe paralysis progress at 2 mg/kg, ip loading dose and 1 mg/ml at 8 ul/hr maintenance dose. Format: functional, organism-based.
Data set [7] concerns Mus musculus. In words: Improvement in neurological outcome in intraluminal monofilament mouse model of middle cerebral artery occlusion assessed as reduction in death incidence at 2 mg/kg, ip loading dose and 1 mg/ml at 8 ul/hr maintenance dose. Format: functional, organism-based.
A short description of data set [8]: Solubility in water. Format: physicochemical.
The nature of data set [9]: Stability of the compound in pH 7.5 buffer assessed as compound hydrolysis measured over 12 hrs. The data set is classed as physicochemical. Particulars: read-out: Drug degradation.
Data set [10] in a line: Stability of the compound in pH 7.5 buffer assessed as compound hydrolysis at room temperature. The data set is classed as physicochemical. The settings on record: read-out: Drug degradation.
Data set [11] is described as follows: Drug metabolism in mouse plasma assessed as formation of N-3,5-bis(trifluoromethyl)phenyl-5-chloro-2-hydroxybenzamide measured within 5 mins. Format: ADME, cell-free.
The nature of data set [12]: Drug metabolism in mouse plasma assessed as formation of 2-3,5-bis(trifluoromethyl)phenylcarbamoyl-4-chlorophenyl phosphate bis-ethanolamine salt at 10 mg/kg, ip loading dose and 1 mg/ml at 8 ul/hr maintenance dose measured at 15 mins and 24 hrs post dose by LC-MS/MS analysis. The data set is classed as ADME, organism-based. Particulars: in vivo.
The nature of data set [13]: Drug metabolism in mouse plasma assessed as formation of N-3,5-bis(trifluoromethyl)phenyl-5-chloro-2-hydroxybenzamide at 10 mg/kg, ip loading dose and 1 mg/ml at 8 ul/hr maintenance dose measured at 15 mins and 24 hrs post dose by LC-MS/MS analysis. Format: ADME, organism-based. The settings on record: in vivo.
Data set [14] is described as follows: Drug metabolism in mouse plasma assessed as N-3,5-bis(trifluoromethyl)phenyl-5-chloro-2-hydroxybenzamide level at 10 mg/kg, ip loading dose and 1 mg/ml at 8 ul/hr maintenance dose measured at 15 mins and 24 hrs post dose by LC-MS/MS analysis. The settings on record: in vivo. The data set is classed as ADME, organism-based.
In data set [15] the test system is Mus musculus. Kind of data set: Drug absorption mouse plasma assessed as rate of drug absorption at 10 mg/kg, ip loading dose and 1 mg/ml at 8 ul/hr maintenance dose measured at 15 mins and 24 hrs post dose by LC-MS/MS analysis. Format: ADME, organism-based. Particulars: in vivo.
Data set [16] is described as follows: Drug elimination mouse plasma assessed as rate of drug elimination at 10 mg/kg, ip loading dose and 1 mg/ml at 8 ul/hr maintenance dose measured at 15 mins and 24 hrs post dose by LC-MS/MS analysis. The data set is classed as ADME, organism-based.
Data set [17] is described as follows: Stability of the compound in pH 9.5 buffer assessed as compound hydrolysis measured over 12 hrs. The data set is classed as physicochemical. The settings on record: read-out: Drug degradation.
A short description of data set [18]: Stability of the compound in pH 9.5 buffer assessed as compound hydrolysis at room temperature. Format: physicochemical. The settings on record: read-out: Drug degradation.
The target in data set [19] is T1, Aquaporin-2 (Homo sapiens) (UniProt P41181).
T1 sequence (whole entry): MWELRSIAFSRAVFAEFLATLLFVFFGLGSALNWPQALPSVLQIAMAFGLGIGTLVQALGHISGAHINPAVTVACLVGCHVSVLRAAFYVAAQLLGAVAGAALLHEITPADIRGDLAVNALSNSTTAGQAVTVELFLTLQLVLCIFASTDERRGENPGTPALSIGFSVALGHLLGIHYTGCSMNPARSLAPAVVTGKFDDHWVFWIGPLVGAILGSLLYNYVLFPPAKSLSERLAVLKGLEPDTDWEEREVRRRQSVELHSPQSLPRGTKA
Kind of data set: Inhibition of AQP2 (unknown origin) expressed in CHO cells assessed as reduction in aquaporin-mediated cell Volume change at 10 uM by light scattering based assay.

Data set [20] deals with T2, Aquaporin-1 (Homo sapiens) (UniProt P29972).
T2 sequence (whole entry): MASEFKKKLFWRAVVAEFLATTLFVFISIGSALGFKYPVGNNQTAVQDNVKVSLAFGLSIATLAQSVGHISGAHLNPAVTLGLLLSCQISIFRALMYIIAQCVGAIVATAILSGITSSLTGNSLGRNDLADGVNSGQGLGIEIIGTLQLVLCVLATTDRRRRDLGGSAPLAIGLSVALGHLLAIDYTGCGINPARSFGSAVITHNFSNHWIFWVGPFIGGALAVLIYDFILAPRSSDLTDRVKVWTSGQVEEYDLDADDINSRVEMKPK
Kind of data set: Inhibition of AQP1 (unknown origin) expressed in CHO cells assessed as reduction in aquaporin-mediated cell Volume shrinkage at 10 uM by light scattering based assay.

Data set [21] concerns the target Aquaporin-5 (Homo sapiens) (UniProt P55064). In words: Inhibition of AQP5 (unknown origin) expressed in CHO cells assessed as reduction in aquaporin-mediated cell Volume shrinkage at 10 uM by light scattering based assay.
Data set [22] has as its system Mus musculus. In words: Inhibition of water toxicity in mouse water toxicity model assessed as time to 50% survival for animals at 0.76 mg/kg relative to control. Format: functional.
Data set [23] deals with Mus musculus. Kind of data set: Inhibition of water shock-induced cerebral edema in mouse water toxicity model assessed as reduction in extent of cerebral edema at 0.76 mg/kg by MRI analysis relative to control. Format: functional, organism-based.
Data set [24] in a line: Plasma concentration in mouse water toxicity model a at 0.76 mg/kg. The data set is classed as organism-based. The settings on record: in vivo.
Data set [25] concerns the target Aquaporin-4 (Homo sapiens) (UniProt P55087). In words: Inhibition of AQP4 (unknown origin) expressed in CHO cells assessed as reduction in water shock-induced aquaporin-mediated cell bursting at 10 uM incubated for 30 mins by calcein-AM fluorescence end-point assay. The data set is classed as cell-based.

Aquaporin-4 (Homo sapiens), sequence (P55087 whole entry): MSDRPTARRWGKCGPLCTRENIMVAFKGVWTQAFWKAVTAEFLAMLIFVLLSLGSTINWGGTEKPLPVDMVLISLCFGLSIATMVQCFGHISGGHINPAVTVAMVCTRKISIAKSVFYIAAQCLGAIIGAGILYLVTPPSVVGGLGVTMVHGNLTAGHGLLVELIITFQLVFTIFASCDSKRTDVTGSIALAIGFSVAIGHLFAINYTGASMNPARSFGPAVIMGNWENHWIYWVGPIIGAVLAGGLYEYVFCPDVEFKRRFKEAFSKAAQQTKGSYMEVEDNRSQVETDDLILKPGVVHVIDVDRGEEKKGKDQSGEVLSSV
Aquaporin-5 (Homo sapiens), sequence (P55064 whole entry): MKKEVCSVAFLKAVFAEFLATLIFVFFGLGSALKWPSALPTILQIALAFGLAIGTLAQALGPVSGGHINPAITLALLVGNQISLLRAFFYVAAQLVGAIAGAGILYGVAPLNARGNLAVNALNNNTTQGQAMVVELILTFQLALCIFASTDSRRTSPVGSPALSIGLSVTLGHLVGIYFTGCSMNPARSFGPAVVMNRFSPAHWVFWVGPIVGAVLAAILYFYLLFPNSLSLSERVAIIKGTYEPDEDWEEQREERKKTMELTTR

With `O=C(Nc1cc(C(F)(F)F)cc(C(F)(F)F)c1)c1cc(Cl)ccc1OP(=O)(O)O` [listing 1 of 2 here], the degraded at 120 h in data set [1] is less than 1%.
As to `O=C(Nc1cc(C(F)(F)F)cc(C(F)(F)F)c1)c1cc(Cl)ccc1OP(=O)([O-])O.[Na+]`, in [2], the Drug degradation came out at 1%. In addition, the degraded at 12 h in data set [3] is less than 1%. Moreover, in data set [4], the degraded worked out at 1%.
As for `O=C(Nc1cc(C(F)(F)F)cc(C(F)(F)F)c1)c1cc(Cl)ccc1OP(=O)(O)O` [listing 2 of 2 here], the outcome in [5], in data set [6] and in data set [7] was Active.
The term solubility denotes the concentration that dissolves in the medium under given conditions. A low value points to a poorly soluble substance. Compound `NCCO.NCCO.O=C(Nc1cc(C(F)(F)F)cc(C(F)(F)F)c1)c1cc(Cl)ccc1OP(=O)(O)O` displayed a solubility in data set [8] of 10000 µg/mL. Also, the Drug degradation in data set [2] amounted to 1%. Also, in data set [9], the degraded at 12 h was less than 1%. The degraded in [10] was 1%. For the same compound, the Drug metabolism result in data set [11] was “Metabolite_Detected”; in data set [12], “Metabolite_Notdetected”; in data set [13] it was “Metabolite_Detected”; in data set [14], 400 ng/mL. Besides, in data set [15], the Ka worked out at 0.12 min⁻¹. Moreover, in data set [16], the k el is 0.000283 s⁻¹.
`O=C(Nc1cc(C(F)(F)F)cc(C(F)(F)F)c1)c1cc(Cl)ccc1OP(=O)([O-])[O-].[Na+].[Na+]` returned a solubility in [8] of 1000 to 10000 µg/mL. In addition, the degraded in data set [2] (solid state, read-out: Drug degradation) came to 1%; in data set [18] it was 1%. Also, the degraded at 12 h in [17] is less than 1%.
As usually defined, the inhibition is the share of the control response that was lost under treatment. `O=C(Nc1cc(Cl)cc(Cl)c1)c1cc(Cl)ccc1O`: the inhibition in data set [19] worked out at 81%. Besides, the inhibition result in data set [20] and in data set [21] was “inactive” in each case.
On to `O=C(Nc1cc(C(F)(F)F)cc(C(F)(F)F)c1)c1cc(Cl)ccc1O` [IMD-0354], for which the Time in data set [22] was 52 min. Moreover, the inhibition entry in [23] and in data set [25] was “Active” throughout. The compound also registered a Cp in data set [24] of 0.03 to 0.06 g.
